Measured values published in ChEMBL document CHEMBL4138197, “Design, synthesis and pharmacological evaluation of N-(5-chloro-2,4-dihydroxybenzoyl)-(R)-N-arylmethyl-1,2,3,4-tetrahydro-3-isoquinolinecarboxamides as potent Hsp90 inhibitors” (Eur J Med Chem, 2018).
pIC50: −log10 of the molar value. Activity calls are given as the source filed them. The rule behind the calls is not given here.

Assays:
MDA-MB-231 = assay: Antiproliferative activity against human MDA-MB-231 cells after 72 hrs by SRB assay; format: functional, cell-based; details: MDA-MB-231, 72 h
[1] = biological target: Heat shock protein HSP 90-alpha (Homo sapiens) (UniProt P07900); assay: Inhibition of HSP90alpha in human MDA-MB-453 cells assessed as down-regulation of AKT levels by Western blot analysis; format: cell-based
MDA-MB-453 [2] = assay: Induction of apoptosis in human MDA-MB-453 cells assessed as necrotic cells at 4 uM after 48 hrs by Annexin V-FITC/propidium iodide-staining based flow cytometry (reference value: 0.01%); format: functional
MDA-MB-453 [3] = assay: Induction of apoptosis in human MDA-MB-453 cells assessed as early apoptotic cells at 0.25 uM after 48 hrs by Annexin V-FITC/propidium iodide-staining based flow cytometry (reference value: 1.65%); format: functional
MDA-MB-453 [4] = assay: Induction of apoptosis in human MDA-MB-453 cells assessed as late apoptotic cells at 4 uM after 48 hrs by Annexin V-FITC/propidium iodide-staining based flow cytometry (reference value: 3.40%); format: functional
[5] = biological target: Heat shock protein HSP 90-alpha (Homo sapiens) (UniProt P07900); assay: Inhibition of HSP90alpha in human MDA-MB-453 cells assessed as down-regulation of CHK1 levels by Western blot analysis; format: cell-based
MDA-MB-453 [6] = assay: Induction of apoptosis in human MDA-MB-453 cells assessed as increase in cleaved caspase7 activity at 0.25 uM up to 48 hrs in presence of z-VAD-fmk by Western blot analysis; format: functional, cell-based
HepG2 = assay: Antiproliferative activity against human HepG2 cells by SRB assay; format: functional, cell-based
MDA-MB-453 [7] = assay: Cell cycle arrest in human MDA-MB-453 cells assessed as reduction in accumulation at S phase at 0.25 to 1 uM after 12 hrs by propidium iodide-staining based flow cytometry; format: functional
[8] = biological target: T1, Heat shock protein HSP90 (Homo sapiens) (UniProt P07900+P08238); assay: Inhibition of HSP90 in human MDA-MB-453 cells assessed as suppression of TNFalpha-induced NFkappaB activation by measuring reduction in relA/p65 translocation to the nucleus at 0.25 uM after 24 hrs by Western blot analysis; format: cell-based
MDA-MB-453 [9] = assay: Induction of apoptosis in human MDA-MB-453 cells assessed upregulation of bid expression at 0.25 uM by Western blot analysis; format: functional, cell-based; details: TDE = time-dependent effect
MDA-MB-453 [10] = assay: Induction of apoptosis in human MDA-MB-453 cells assessed as increase in cleaved PARP activity at 0.25 uM up to 48 hrs in presence of z-VAD-fmk by Western blot analysis; format: functional, cell-based
MDA-MB-453 [11] = assay: Induction of apoptosis in human MDA-MB-453 cells assessed upregulation of bim expression at 0.25 uM by Western blot analysis; format: functional, cell-based; details: TDE = time-dependent effect
[12] = biological target: Heat shock protein HSP 90-alpha (Homo sapiens) (UniProt P07900); assay: Binding affinity to HSP90alpha in HEK293T cells assessed as induction of thermal stabilisation of HSP90alpha pre-incubated for 3 hrs followed by heating at 37 to 63 degC for 3 mins then subsequent cooling for 3 mins by Western blot-based CESTA relative to beta actin; format: cell-based
[13] = biological target: T1, Heat shock protein HSP90 (Homo sapiens); assay: Inhibition of HSP90 in human MDA-MB-453 cells assessed as downmodulation of IKKgamma expression at 0.25 uM up to 48 hrs by Western blot analysis; format: cell-based
MDA-MB-453 [14] = assay: Induction of apoptosis in human MDA-MB-453 cells assessed as late apoptotic cells at 1 uM after 48 hrs by Annexin V-FITC/propidium iodide-staining based flow cytometry (reference value: 3.40%); format: functional
[15] = biological target: Heat shock protein HSP 90-alpha (Homo sapiens) (UniProt P07900); assay: Inhibition of HSP90alpha in human MDA-MB-453 cells assessed as down-regulation of cdc2 levels by Western blot analysis; format: cell-based
[16] = biological target: MAP kinase p38 (Homo sapiens) (UniProt O15264+Q15759+Q16539+P53778); assay: Induction of p38 phosphorylation in human MDA-MB-453 cells at 0.25 uM after 48 hrs in presence of […] by Western blot analysis; format: cell-based
A549 [17] = assay: Antiproliferative activity against human A549 cells by SRB assay; format: functional, cell-based
A549 [18] = assay: Antiproliferative activity against human A549 cells after 72 hrs by SRB assay; format: functional, cell-based; details: A549, 72 h
MDA-MB-453 [19] = assay: Induction of apoptosis in human MDA-MB-453 cells assessed as early apoptotic cells at 4 uM after 48 hrs by Annexin V-FITC/propidium iodide-staining based flow cytometry (reference value: 1.65%); format: functional
MDA-MB-453 [20] = assay: Cell cycle arrest in human MDA-MB-453 cells assessed as increase in accumulation at G0/G1 phase at 0.25 to 1 uM after 12 hrs by propidium iodide-staining based flow cytometry; format: functional
[21] = biological target: Heat shock protein HSP 90-alpha (Homo sapiens) (UniProt P07900); assay: Binding affinity to HSP90alpha in HEK293T cells assessed as induction of thermal stabilisation of HSP90alpha at 10 uM pre-incubated for 3 hrs followed by heating at 37 to 63 degC for 3 mins then subsequent cooling for 3 mins by Western blot-based CESTA relative to beta actin; format: cell-based
MDA-MB-453 [22] = assay: Induction of apoptosis in human MDA-MB-453 cells assessed as increase in cleaved caspase3 activity at 0.25 uM up to 48 hrs in presence of z-VAD-fmk by Western blot analysis; format: functional, cell-based
SH-SY5Y = assay: Antiproliferative activity against human SH-SY5Y cells by SRB assay; format: functional, cell-based
MDA-MB-453 [23] = assay: Induction of apoptosis in human MDA-MB-453 cells assessed as necrotic cells at 1 uM after 48 hrs by Annexin V-FITC/propidium iodide-staining based flow cytometry (reference value: 0.01%); format: functional
[24] = biological target: Heat shock protein HSP 90-alpha (Homo sapiens) (UniProt P07900); assay: Inhibition of HSP90alpha in human MDA-MB-453 cells assessed as down-regulation of C-RAF levels by Western blot analysis; format: cell-based

- pIC50 (MDA-MB-231): 6.52
- inhibition [1]: Dose-dependent effect
- inhibition [5]: Dose-dependent effect
- inhibition [8]: Active
- Activity [12]: Dose-dependent effect
- inhibition [13]: Active
- inhibition [15]: Dose-dependent effect
- Activity [16]: inactive
- pIC50 (A549 [18]): 6.38
- Activity [21]: Active
- inhibition [24]: Dose-dependent effect
Structure (SMILES): O=C(NCc1ccncc1)[C@H]1Cc2ccccc2CN1C(=O)c1cc(Cl)c(O)cc1O
- Activity (MDA-MB-453 [2]): 0.54%
- Activity (MDA-MB-453 [3]): 4.26%
- Activity (MDA-MB-453 [4]): 18.32%
- Activity (MDA-MB-453 [6]): inactive
- Activity (HepG2): Active
- Activity (MDA-MB-453 [7]): Active
- Activity (MDA-MB-453 [9]): Tde
- Activity (MDA-MB-453 [10]): inactive
- Activity (MDA-MB-453 [11]): Tde
- Activity (MDA-MB-453 [14]): 15.11%
- Activity (A549 [17]): Active
- Activity (MDA-MB-453 [19]): 23.49%
- Activity (MDA-MB-453 [20]): Active
- Activity (MDA-MB-453 [22]): inactive
- Activity (SH-SY5Y): Active
- Activity (MDA-MB-453 [23]): 0.03%
